Experimental findings from patent US20230295157A1, “3-(1H-IMIDAZOL-2-YL)-2,3,8,8A-TETRAHYDROINDOLIZIN-5(1H)-ONE DERIVATIVES USEFUL AS FACTOR XIA INHIBITORS” (JANSSEN PHARMACEUTICA NV, priority 2020, published 2023) are described below.

One assay deals with Factor XIa (Homo sapiens (Human), UniProt P03951). Put plainly: Factor XIa inhibition assay (FLINT) utilizing a fluorophore-quencher pair peptide substrate. Type of assay: biochemical. The note with it: 30 min preincubation, kinetic reads over 30 min, 5Fam-KLTRAETV-K5Tamra substrate 15 μM; read-out: FXIa Kin Inh IC50. Summed up:
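FXIa ([…]) preincubated 30 min with compound (11-point 3-fold dilution, top 100 nM, 2% DMSO), then 15 μM quenched FXI Arg146-based peptide added; Tris pH 7.5, CaCl2, BSA, CHAPS. Fluorescence 485/520 nm read kinetically every 5 min over 30 min at RT; IC50 by 4-parameter fit.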

A further assay addresses human plasma kallikrein (Homo sapiens (Human), UniProt P03952). Kind of assay: Kallikrein inhibition assay (FLINT) utilizing a quenched AMC peptide substrate. Type of assay: biochemical. Particulars: 30 min preincubation, read-out: Kallikrein Kin Inh IC50. Summed up:
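Enzyme (2 nM final) pre-incubated 30 min at room temperature with compound (11-point, 3-fold, top 1 μM, 2% DMSO), then 50 μM Z-Gly-Pro-Arg-AMC added in Tris pH 7.5 buffer. Kinetic fluorescence 340/440 nm every 5 min over 30 min; IC50 from 4-parameter logistic fit.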

The mark [1] stands for this setting: kinetic reads over 30 min, Z-Gly-Pro-Arg-AMC substrate 50 μM.

Like-named read-outs stand apart in the source and are kept apart here.

Factor XIa, sequence (P03951 388-625): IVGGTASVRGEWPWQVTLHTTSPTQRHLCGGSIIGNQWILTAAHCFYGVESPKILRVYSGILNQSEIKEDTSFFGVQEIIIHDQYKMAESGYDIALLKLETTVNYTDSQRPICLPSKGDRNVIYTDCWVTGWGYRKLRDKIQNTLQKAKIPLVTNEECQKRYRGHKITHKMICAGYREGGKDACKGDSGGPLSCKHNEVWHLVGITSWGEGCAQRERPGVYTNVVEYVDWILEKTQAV
Factor XIa, sequence (P03951 19-387 partner): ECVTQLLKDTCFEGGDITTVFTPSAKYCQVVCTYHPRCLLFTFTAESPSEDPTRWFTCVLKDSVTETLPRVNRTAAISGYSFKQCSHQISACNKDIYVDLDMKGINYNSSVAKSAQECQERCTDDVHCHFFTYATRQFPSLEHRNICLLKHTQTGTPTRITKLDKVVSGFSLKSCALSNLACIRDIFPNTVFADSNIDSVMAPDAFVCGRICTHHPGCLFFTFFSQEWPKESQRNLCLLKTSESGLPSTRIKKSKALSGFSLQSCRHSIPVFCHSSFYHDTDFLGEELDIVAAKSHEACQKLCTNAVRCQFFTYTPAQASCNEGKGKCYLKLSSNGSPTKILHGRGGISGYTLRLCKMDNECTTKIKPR
human plasma kallikrein, sequence (P03952 391-638): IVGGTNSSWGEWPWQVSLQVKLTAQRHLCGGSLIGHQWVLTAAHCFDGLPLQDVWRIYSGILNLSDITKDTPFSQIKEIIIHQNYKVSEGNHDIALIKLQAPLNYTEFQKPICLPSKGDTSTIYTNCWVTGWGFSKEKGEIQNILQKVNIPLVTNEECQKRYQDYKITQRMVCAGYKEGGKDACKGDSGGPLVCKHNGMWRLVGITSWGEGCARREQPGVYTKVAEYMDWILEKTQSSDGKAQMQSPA
human plasma kallikrein, sequence (P03952 20-390 partner): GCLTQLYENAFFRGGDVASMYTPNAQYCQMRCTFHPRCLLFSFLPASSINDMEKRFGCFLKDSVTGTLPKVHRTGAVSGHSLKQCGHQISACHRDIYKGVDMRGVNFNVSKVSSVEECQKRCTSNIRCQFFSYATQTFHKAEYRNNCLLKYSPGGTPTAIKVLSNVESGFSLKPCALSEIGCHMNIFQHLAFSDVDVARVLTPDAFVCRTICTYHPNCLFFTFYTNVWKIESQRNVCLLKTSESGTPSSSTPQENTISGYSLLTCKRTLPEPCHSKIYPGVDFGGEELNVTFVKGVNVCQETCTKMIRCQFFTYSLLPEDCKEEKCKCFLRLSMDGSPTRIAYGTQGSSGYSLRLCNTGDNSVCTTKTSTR

For the compound `O=C1C=C(c2c(-n3cnnn3)ccc(Cl)c2F)CC2CC[C@@H](c3ncc(-c4ccc5[nH]c(=O)ccc5c4)[nH]3)N12` (stereo partly drawn) [Example 261, 6-[2-[(3S)-7-[3-Chloro-2-fluoro-6-(tetrazol-1-yl)phenyl]-5-oxo-2,3,8,8a-tetrahydro-1H-indolizin-3-yl]-1H-imidazol-5-yl]-1H-quinolin-2-one], the IC50 (usually the concentration that gives 50% inhibition) at Factor XIa is 0.3 nM; on human plasma kallikrein (setting [1]), 0.0007 µM.

In the case of `CCOC(=O)Nc1ncccc1-c1c[nH]c([C@@H]2CC[C@H]3CC(c4c(-n5cnnn5)ccc(Cl)c4F)=CC(=O)N32)n1` [Example 262, Ethyl N-[3-[2-[(3S,8aS)-7-[3-chloro-2-fluoro-6-(tetrazol-1-yl)phenyl]-5-oxo-2,3,8,8a-tetrahydro-1H-indolizin-3-yl]-1H-imidazol-4-yl]-2-pyridyl]carbamate], the IC50 was found to be 45.8 nM on Factor XIa and 0.15 µM at human plasma kallikrein (setting [1]).

Take `CCOC(=O)Nc1cnccc1-c1c[nH]c([C@@H]2CC[C@H]3CC(c4c(-n5cnnn5)ccc(Cl)c4F)=CC(=O)N32)n1` [Example 263, Ethyl N-[4-[2-[(3S,8aS)-7-[3-chloro-2-fluoro-6-(tetrazol-1-yl)phenyl]-5-oxo-2,3,8,8a-tetrahydro-1H-indolizin-3-yl]-1H-imidazol-4-yl]-3-pyridyl]carbamate]: the IC50 stood at 2.3 nM on Factor XIa and 0.0337 µM at human plasma kallikrein (setting [1]).

Turning to `COc1ccc(-c2c[nH]c([C@@H]3CC[C@H]4CC(c5c(-n6cnnn6)ccc(Cl)c5F)=CC(=O)N43)n2)c(NC(=O)C2CC2)c1` [Example 264, N-[2-[2-[(3S,8aS)-7-[3-Chloro-2-fluoro-6-(tetrazol-1-yl)phenyl]-5-oxo-2,3,8,8a-tetrahydro-1H-indolizin-3-yl]-1H-imidazol-4-yl]-5-methoxy-phenyl]cyclopropanecarboxamide], the IC50 stood at 1.1 nM on Factor XIa and 0.0021 µM at human plasma kallikrein (setting [1]).

As for `CNc1n[nH]c2cc(-c3cnc([C@@H]4CC[C@H]5CC(c6c(-n7cnnn7)ccc(Cl)c6F)=CC(=O)N54)[nH]3)ccc12` [Example 265, (3S,8aS)-7-[3-Chloro-2-fluoro-6-(tetrazol-1-yl)phenyl]-3-[5-[3-(methylamino)-1H-indazol-6-yl]-1H-imidazol-2-yl]-2,3,8,8a-tetrahydro-1H-indolizin-5-one], the IC50 stood at 0.4 nM at Factor XIa and 0.001 µM at human plasma kallikrein (setting [1]).

As for `COc1ccc(-c2c[nH]c([C@@H]3CC[C@@H]4CC(c5c(-n6cnnn6)ccc(Cl)c5F)=CC(=O)N43)n2)c(NC(=O)C2CC2)c1` [Example 266, N-(2-(2-((3S,8aR)-7-(3-Chloro-2-fluoro-6-(1H-tetrazol-1-yl)phenyl)-5-oxo-1,2,3,5,8,8a-hexahydroindolizin-3-yl)-1H-imidazol-4-yl)-5-methoxyphenyl)cyclopropanecarboxamide], the values for the IC50 at Factor XIa and on human plasma kallikrein (setting [1]) were 0.9 nM and 0.0011 µM, respectively.

Turning to `O=C(Nc1ccncc1-c1c[nH]c([C@@H]2CC[C@H]3CC(c4c(-n5cnnn5)ccc(Cl)c4F)=CC(=O)N32)n1)C1CC1` [Example 267, N-[3-[2-[(3S,8aS)-7-[3-Chloro-2-fluoro-6-(tetrazol-1-yl)phenyl]-5-oxo-2,3,8,8a-tetrahydro-1H-indolizin-3-yl]-1H-imidazol-4-yl]-4-pyridyl]cyclopropanecarboxamide], the IC50 on Factor XIa is 1 nM; on human plasma kallikrein (setting [1]) it was 0.009 µM.

As for `CCOC(=O)Nc1ccncc1-c1c[nH]c([C@@H]2CC[C@H]3CC(c4c(-n5cnnn5)ccc(Cl)c4F)=CC(=O)N32)n1` [Example 268, Ethyl N-[3-[2-[(3S,8aS)-7-[3-chloro-2-fluoro-6-(tetrazol-1-yl)phenyl]-5-oxo-2,3,8,8a-tetrahydro-1H-indolizin-3-yl]-1H-imidazol-4-yl]-4-pyridyl]carbamate], the IC50 at Factor XIa worked out at 68.1 nM; at human plasma kallikrein (setting [1]) it was 0.286 µM.

On to `CNc1ncccc1-c1cnc([C@@H]2CC[C@H]3CC(c4c(-n5cnnn5)ccc(Cl)c4F)=CC(=O)N32)[nH]1` [Example 269, (3S,8aS)-7-[3-Chloro-2-fluoro-6-(tetrazol-1-yl)phenyl]-3-[5-[2-(methylamino)-3-pyridyl]-1H-imidazol-2-yl]-2,3,8,8a-tetrahydro-1H-indolizin-5-one], for which the IC50 was over 100 nM at Factor XIa and 0.793 µM on human plasma kallikrein (setting [1]).

Consider `O=C1C=C(c2c(-n3cnnn3)ccc(Cl)c2F)C[C@@H]2CC[C@@H](c3ncc(-c4ccc5[nH]c(=O)ccc5c4)[nH]3)N12` [Example 270, 6-[2-[(3S,8aS)-7-[3-Chloro-2-fluoro-6-(tetrazol-1-yl)phenyl]-5-oxo-2,3,8,8a-tetrahydro-1H-indolizin-3-yl]-1H-imidazol-5-yl]-1H-quinolin-2-one], for which the IC50 on Factor XIa was 0.2 nM; at human plasma kallikrein (setting [1]), 0.0004 µM.

As to `Nc1ccncc1-c1c[nH]c([C@@H]2CC[C@H]3CC(c4c(-n5cnnn5)ccc(Cl)c4F)=CC(=O)N32)n1` [Example 272, (3S,8aS)-3-(4-(4-Aminopyridin-3-yl)-1H-imidazol-2-yl)-7-(3-chloro-2-fluoro-6-(1H-tetrazol-1-yl)phenyl)-2,3,8,8a-tetrahydroindolizin-5(1H)-one], the IC50 at Factor XIa is over 100 nM; at human plasma kallikrein (μM, kinetic reads), over 1 µM.

As to `O=C1C=C(c2c(-n3cnnn3)ccc(Cl)c2F)CC2CC[C@@H](c3ncc(-c4ccc5[nH]c(=O)ncc5c4)[nH]3)N12` (stereo partly drawn) [Example 273, 6-(2-((3S)-7-(3-Chloro-2-fluoro-6-(1H-tetrazol-1-yl)phenyl)-5-oxo-1,2,3,5,8,8a-hexahydroindolizin-3-yl)-1H-imidazol-5-yl)quinazolin-2(1H)-one], the IC50 was 0.5 nM at Factor XIa and 0.002 µM on human plasma kallikrein (setting [1]).

For the compound `Cn1cnc(-c2c[nH]c([C@@H]3CC[C@H]4CC(c5c(-n6cnnn6)ccc(Cl)c5F)=CC(=O)N43)n2)n1` [Example 274, (3S,8aS)-7-(3-Chloro-2-fluoro-6-(1H-tetrazol-1-yl)phenyl)-3-(4-(1-methyl-1H-1,2,4-triazol-3-yl)-1H-imidazol-2-yl)-2,3,8,8a-tetrahydroindolizin-5(1H)-one], the IC50 on Factor XIa was over 100 nM; at human plasma kallikrein (μM, kinetic reads) it was over 1 µM.

For `Cn1cc(NC(=O)C2CC2)c(-c2c[nH]c([C@@H]3CC[C@H]4CC(c5c(-n6cnnn6)ccc(Cl)c5F)=CC(=O)N43)n2)n1` [Example 275, N-(3-(2-((3S,8aS)-7-(3-Chloro-2-fluoro-6-(1H-tetrazol-1-yl)phenyl)-5-oxo-1,2,3,5,8,8a-hexahydroindolizin-3-yl)-1H-imidazol-4-yl)-1-methyl-1H-pyrazol-4-yl)cyclopropanecarboxamide], the IC50 is 24.4 nM at Factor XIa and 0.0156 µM at human plasma kallikrein (setting [1]).

For the compound `COc1ccc(-c2c[nH]c([C@@H]3CCC4CC(c5c(-n6cnnn6)ccc(Cl)c5F)=CC(=O)N43)n2)c(NC(=O)C2CC2)c1` (stereo partly drawn) [Example 276, N-(2-(2-((3S)-7-(3-Chloro-2-fluoro-6-(1H-tetrazol-1-yl)phenyl)-5-oxo-1,2,3,5,8,8a-hexahydroindolizin-3-yl)-1H-imidazol-4-yl)-5-methoxyphenyl)cyclopropanecarboxamide], the IC50 at Factor XIa is 0.6 nM; at human plasma kallikrein (setting [1]), 0.0012 µM.

Turning to `O=C1Cc2cc(-c3cnc([C@@H]4CC[C@H]5CC(c6c(-n7cnnn7)ccc(Cl)c6F)=CC(=O)N54)[nH]3)ccc2N1` [Example 283, 5-(2-((3S,8aS)-7-(3-Chloro-2-fluoro-6-(1H-tetrazol-1-yl)phenyl)-5-oxo-1,2,3,5,8,8a-hexahydroindolizin-3-yl)-1H-imidazol-5-yl)indolin-2-one], the IC50 at Factor XIa stood at 3.5 nM; on human plasma kallikrein (setting [1]) it was 0.0059 µM.
